Measured values from patent US20250066386A1, “INHIBITORS OF KRAS” (BIOMEA FUSION, INC., priority 2022, published 2025).
Like-named read-outs stand apart in the source and are kept apart here.

Tests used:
[1] = tested on: human KRAS G12C mutated cell line MIA PaCa-2; experiment: KRas G12C in vitro inhibitory activity: cell proliferation, CellTiter-Glo; format: cell-based
From the text: The present example evaluates the ability of compounds provided herein to inhibit proliferation of KRAS mutant cells.
The inhibitory effect on cell proliferation was investigated in the human KRAS G12C mutated cell line MIA PaCa-2 (Yunis et al., 1977, Int. J. Cancer 19(1):128-135; ATCC catalog no. CRL-1420). Cells were maintained in RPMI-1640 medium (ThermoFisher catalog no. 61870036) supplemented with 10% of Heat Inactivated FBS (ThermoFisher catalog no. A31605) and 1% Pen-Strep (ThermoFisher catalog no. 10378016) and cultured at 37° C. in a humidified incubator with 5% CO2. Cells were grown by adhering to culture flasks, and maintained at 70%-80% confluency.
ATP is present in all metabolically active cells and is considered as a marker for viable cells. The number of metabolically active live cells in culture was determined using the CellTiter-Glo kit (Promega catalog no. G7572), an ATP monitoring system based on the production of luminescence by the reaction of ATP with added UltraGlo® recombinant luciferase (Kawano et al., 2016, PLOS One, 8; 11(7):e0158888), according to the supplier's experimental recommendations. The cell proliferation assay was based on a 96 well plate format.
Test compounds were dissolved at 10 mM in DMSO (Sigma catalog no. D8418; purity >99.9%) and stored at −20° C. Eight concentrations of test compound were assessed in duplicate in an individual test occasion in parallel in the selected cell lines. MRTX-849 and AMG-510 were used as reference compounds and tested in duplicate at eight concentrations. 100% of proliferation is represented by the untreated cells (0.2% DMSO).
On the day of the experiment (TO), cells were detached with TrypLE (ThermoFisher catalog no. 12604054), quantified using the cell viability analyser NucleoCounter (Chemometec NC-200) and resuspended in fresh medium at a cell density of about 5000 cells per 200 μL medium. 200 μL of cell suspension were added to each well of a 96 well plate.
Two hours after seeding cells, compounds were added at desired concentrations using a D300e compound dispenser (Life Sciences Tecan D300) with shaking after each compound addition. Assay plates were incubated at 37° C. in a humidified incubator with 5% CO2.
(§1) To measure 3 day inhibition of cell proliferation on day 3 (T3), assay plates were equilibrated to room temperature for approximately 15 min, and the Promega CellTiterGlo® reagent was added at 40 μL/well. Contents were mixed for 5 min on an orbital shaker to induce cell lysis, and then incubated at room temperature for an additional 10 min in the dark to stabilize the luminescent signal. Luminescence was read using a GloMax GM300 plate reader (Promega) using the luminescence for 96 well plate standard protocol.
as §1, with “measure 7” for “measure 3”, “(T3), 150 μL of growth media was removed from each well of the assay plates and replaced with 150 uL fresh growth media, and fresh compounds added using a D300e compound dispenser (Life Sciences Tecan D300) at desired concentrations with shaking between each compound addition. Assay plates were incubated at 37° C. in a humidified incubator with 5% CO2. On day 7 (T7)” for “(T3),”
Data was expressed as % of inhibition compared to the 0.2% DMSO negative no drug control, and is calculated as follows: % inhibition=100−[(RLU sample)×100/(RLU average controls*)], where * indicates the average for 0.2% DMSO.
Results were analyzed by GraphPad (Prism) and IC50 values were calculated by non-linear regression using four parameter-logistic equation. […]

[2] = from CCn1c(-c2cccnc2[C@H](C)OC)c(CC(C)(C)CO)c2cc(-c3cccc(C[C@H](NC(=O)OC(C)(C)C)C(=O)N4CC[C@H](C(=O)O)C4)c3)ccc21; ester bond; 18-membered ring; EDC/HOBT/DIPEA; DCM; 47.2 mM; 25.0 °C; 16.0 h; 2 steps
[3] = Homo sapiens, MIA PaCa-2, 72 h, 3 day inhibition of cell proliferation, CellTiter-Glo luminescence, read-out: MIA PaCa-2 Day 3 IC50
[4] = Homo sapiens, MIA PaCa-2, 7 day inhibition of cell proliferation, medium and compound renewed on day 3, CellTiter-Glo luminescence, read-out: MIA PaCa-2 Day 7 IC50

| SMILES | IC50 [1, 3] | IC50 [1, 4] | ring closure, isolated yield [2] | IC50 ([1]; 7 day inhibition of cell proliferation, medium and compound renewed on day 3, CellTiter-Glo luminescence, read-out: MIA PaCa-2 Day 7 IC50) |
| --- | --- | --- | --- | --- |
| CCn1c(-c2cccnc2[C@H](C)OC)c2c3cc(ccc31)-c1csc(n1)C[C@H](NC(=O)[C@H](C(C)C)N(C)C(=O)[C@H]1CCN(CC#CC(=O)N3CCC3)C1)C(=O)N1CCC[C@H](N1)C(=O)OCC(C)(C)C2 (atropisomer, axis not shown) [Compound 116, (3S)-1-(4-(azetidin-1-yl)-4-oxobut-2-yn-1-yl)-N-((2S)-1-(((6^3S,4S,Z)-1^1-ethyl-1^2-(2-((S)-1-methoxyethyl)pyridin-3-yl)-10,10-dimethyl-5,7-dioxo-6^1,6^2,6^3,6^4,6^5,6^6-hexahydro-1^1H-8-oxa-2(4,2)-thiazola-1(5,3)-indola-6(1,3)-pyridazinacycloundecaphane-4-yl)amino)-3-methyl-1-oxobutan-2-yl)-N-methylpyrrolidine-3-carboxamide] | > 100 nM | 1 to 10 nM | – | – |
| CCn1c(-c2cccnc2[C@H](C)OC)c2c3cc(ccc31)-c1cccc(c1)C[C@H](NC(=O)[C@H](C(C)C)N(C)C(=O)[C@H]1CCN(C(=O)C#CCN(C)C)C1)C(=O)N1CC[C@H](C1)C(=O)OCC(C)(C)C2 (atropisomer, axis not shown) [Compound 103, (3S)-1-(4-(dimethylamino)but-2-ynoyl)-N-((2S)-1-(((6^3R,4S)-1^1-ethyl-1^2-(2-((S)-1-methoxyethyl)pyridin-3-yl)-10,10-dimethyl-5,7-dioxo-1^1H-8-oxa-1(5,3)-indola-6(1,3)-pyrrolidina-2(1,3)-benzenacycloundecaphane-4-yl)amino)-3-methyl-1-oxobutan-2-yl)-N-methylpyrrolidine-3-carboxamide] | > 100 nM | – | – | – |
| CCn1c(-c2cccnc2[C@H](C)OC)c2c3cc(ccc31)-c1cccc(c1)C[C@H](NC(=O)[C@H](C(C)C)N(C)C(=O)[C@H]1CCN(C(=O)C#CCN(C)C)C1)C(=O)N1CC[C@@H](C1)C(=O)OCC(C)(C)C2 (atropisomer, axis not shown) [Compound 102, (3S)-1-(4-(dimethylamino)but-2-ynoyl)-N-((2S)-1-(((6^3S,4S)-1^1-ethyl-1^2-(2-((S)-1-methoxyethyl)pyridin-3-yl)-10,10-dimethyl-5,7-dioxo-1^1H-8-oxa-1(5,3)-indola-6(1,3)-pyrrolidina-2(1,3)-benzenacycloundecaphane-4-yl)amino)-3-methyl-1-oxobutan-2-yl)-N-methylpyrrolidine-3-carboxamide] | > 100 nM | – | – | – |
| CCn1c(-c2cccnc2[C@H](C)OC)c2c3cc(ccc31)-c1cccc(c1)C[C@H](NC(=O)OC(C)(C)C)C(=O)N1CC[C@@H](C1)C(=O)OCC(C)(C)C2 | – | – | 60% | – |
| CCn1c(-c2cccnc2[C@H](C)OC)c2c3cc(ccc31)-c1cccc(c1)C[C@H](NC(=O)[C@H](C(C)C)N(C)C(=O)[C@H]1CCN(C(=O)C#CCN3CCOCC3)C1)C(=O)N1CCC[C@H](C1)C(=O)OCC(C)(C)C2 (atropisomer, axis not shown) [Compound 2, (3S)—N-((2S)-1-(((6^3R,4S)-1^1-ethyl-1^2-(2-((S)-1-methoxyethyl)pyridin-3-yl)-10,10-dimethyl-5,7-dioxo-1^1H-8-oxa-1(5,3)-indola-6(1,3)-piperidina-2(1,3)-benzenacycloundecaphane-4-yl)amino)-3-methyl-1-oxobutan-2-yl)-N-methyl-1-(4-morpholinobut-2-ynoyl)pyrrolidine-3-carboxamide] | > 100 nM | – | – | > 100 nM |
| CCn1c(-c2cccnc2[C@H](C)OC)c2c3cc(ccc31)-c1cccc(c1)C[C@H](NC(=O)[C@H](C(C)C)N(C)C(=O)[C@H]1CCN(C/C=C/C(=O)N(C)C)C1)C(=O)N1CCC[C@H](N1)C(=O)OCC(C)(C)C2 (atropisomer, axis not shown) [Compound 101, (3S)-1-((E)-4-(dimethylamino)-4-oxobut-2-en-1-yl)-N-((2S)-1-(((6^3S,4S)-1^1-ethyl-1^2-(2-((S)-1-methoxyethyl)pyridin-3-yl)-10,10-dimethyl-5,7-dioxo-6^1,6^2,6^3,6^4,6^5,6^6-hexahydro-1^1H-8-oxa-1(5,3)-indola-6(1,3)-pyridazina-2(1,3)-benzenacycloundecaphane-4-yl)amino)-3-methyl-1-oxobutan-2-yl)-N-methylpyrrolidine-3-carboxamide] | 10 to 100 nM | 10 to 100 nM | – | – |
| CCn1c(-c2cccnc2[C@H](C)OC)c2c3cc(ccc31)-c1csc(n1)C[C@H](NC(=O)[C@H](C(C)C)N(C)C(=O)[C@H]1CCN(C(C)C#CC(=O)N(C)C)C1)C(=O)N1CCC[C@H](N1)C(=O)OCC(C)(C)C2 (stereo partly drawn) [Compound 114, (3S)-1-(5-(dimethylamino)-5-oxopent-3-yn-2-yl)-N-((2S)-1-(((63S,4S,Z)-1^1-ethyl-1^2-(2-((S)-1-methoxyethyl)pyridin-3-yl)-10,10-dimethyl-5,7-dioxo-6^1,6^2,6^3,6^4,6^5,6^6-hexahydro-11H-8-oxa-2(4,2)-thiazola-1(5,3)-indola-6(1,3)-pyridazinacycloundecaphane-4-yl)amino)-3-methyl-1-oxobutan-2-yl)-N-methylpyrrolidine-3-carboxamide] | < 1 nM | – | – | – |
| CCn1c(-c2cccnc2[C@H](C)OC)c2c3cc(ccc31)-c1cccc(c1)C[C@H](NC(=O)[C@H](C(C)C)N(C)C(=O)[C@H]1CCN(C/C=C/C(=O)N3CC(F)C3)C1)C(=O)N1CCC[C@H](N1)C(=O)OCC(C)(C)C2 (atropisomer, axis not shown) [Compound 110, (3S)—N-((2S)-1-(((6^3S,4S)-1^1-ethyl-1^2-(2-((S)-1-methoxyethyl)pyridin-3-yl)-10,10-dimethyl-5,7-dioxo-6^1,6^2,6^3,6^4,6^5,6^6-hexahydro-1^1H-8-oxa-1(5,3)-indola-6(1,3)-pyridazina-2(1,3)-benzenacycloundecaphane-4-yl)amino)-3-methyl-1-oxobutan-2-yl)-1-((E)-4-(3-fluoroazetidin-1-yl)-4-oxobut-2-en-1-yl)-N-methylpyrrolidine-3-carboxamide] | < 1 nM | – | – | – |
| CCn1c(-c2cccnc2[C@H](C)OC)c2c3cc(ccc31)-c1csc(n1)C[C@H](NC(=O)[C@H](C(C)C)N(C)C(=O)[C@H]1CCN(CC#CC(=O)N3CC(F)C3)C1)C(=O)N1CCC[C@H](N1)C(=O)OCC(C)(C)C2 (atropisomer, axis not shown) [Compound 118, (3S)—N-((2S)-1-(((6^3S,4S,Z)-1^1-ethyl-1^2-(2-((S)-1-methoxyethyl)pyridin-3-yl)-10,10-dimethyl-5,7-dioxo-6^1,6^2,6^3,6^4,6^5,6^6-hexahydro-1^1H-8-oxa-2(4,2)-thiazola-1(5,3)-indola-6(1,3)-pyridazinacycloundecaphane-4-yl)amino)-3-methyl-1-oxobutan-2-yl)-1-(4-(3-fluoroazetidin-1-yl)-4-oxobut-2-yn-1-yl)-N-methylpyrrolidine-3-carboxamide] | > 100 nM | 1 to 10 nM | – | – |
| CCn1c(-c2cccnc2[C@H](C)OC)c2c3cc(ccc31)-c1cccc(c1)C[C@H](NC(=O)[C@H](C(C)C)N(C)C(=O)[C@H]1CCN(C(=O)C#CCN3CCOCC3)C1)C(=O)N1CCC[C@@H](CC(=O)OC(C)(C)C2)C1 [Compound 107] | – | > 100 nM | – | – |
